Assay [1] deals with Arom^hum mice. Description: Reversal of established scrotal hernias and LAMT fibrosis/atrophy in Arom^hum mice. The class given is in vivo, mouse. The protocol:
FIG. 16. […] Arom^hum mice with small to moderate size of hernias were treated with placebo or letrozole for 12 weeks. (A) Schematic diagram depicts the schedule of drug administration. (B) The area of scrotal hernia in Arom^hum mice. (C) Representative photomicrographs of Masson's trichrome-stained LAMT sections of WT and Arom^hum mice. Quantification of the percentage of connective tissue or fibrotic area (D) or myofiber area (E) in WT and Arom^hummice. 10 representative high-power fields were analyzed in each tissue. One-way ANOVA with Tukey's multiple comparison test, **p<0.01, ***p<0.001. Scale bars, […]. n=5 mice per group.
FIG. 17. […] Arom^hum mice with small to moderate size of hernias were treated with placebo or letrozole for 3 weeks. (A) Schematic diagram depicts the schedule of drug administration. (B) The area of scrotal hernia in Arom^hum mice.
FIG. 18. E2/ER antagonist fulvestrant reverses the large size of scrotal hernias and rescues LAMT fibrosis and myocyte atrophy in Arom^hum mice. Arom^hum mice with large size of hernias were treated with placebo or fulvestrant for 12 weeks. (A) Schematic diagram depicts the schedule of drug administration. (B) The area of scrotal hernia in Arom^hum mice. (C) Representative photomicrographs of Masson's trichrome-stained LAMT sections of WT and Arom^hum mice. Quantification of the percentage of connective tissue or fibrotic area (D) in WT and Arom^hum mice. 10 representative high-power fields were analyzed in each tissue. (E) Hydroxyproline content in LAMT of WT and Arom^hum mice treated with fulvestrant. One-way ANOVA with Tukey's multiple comparison test, ***p<0.001, ****p<0.0001. n=5 mice per group.
FIG. 19. Aromatase inhibitor letrozole reverses the large size of scrotal hernias in Arom^hum mice. Arom^hum mice with large size of hernias were treated with placebo or letrozole for 12 weeks. (A) Schematic diagram depicts the schedule of drug administration. (B) The area of scrotal hernia in Arom^hum mice.
FIG. 20. E2/ER antagonist raloxifene reverses the large size of scrotal hernias in Arom^hum mice. Arom^hum mice with large size of hernias were treated with placebo or raloxifene for 3 weeks. (A) Schematic diagram depicts the schedule of drug administration. (B) The area of scrotal hernia in Arom^hum mice.
We treated Arom^hum mice with letrozole for 12 weeks. […] Raloxifene is a selective estrogen receptor modulator (SERM) and is currently used to prevent and treat osteoporosis in postmenopausal women.
We treated Arom^hum mice with fulvestrant for 12 weeks when the hernia area was over 200 mm^2. Large hernias were completely disappeared after 3- to 4-week of fulvestrant administration. […] We measured the total amount of collagen (largely type I and III), a major component of ECM, through measuring the content of hydroxyproline(1).

Assay [2] relates to LAMT primary fibroblasts from Arom^hum mice. Description: mRNA levels of estrogen-responsive and fibrotic genes in LAMT primary fibroblasts after E2 antagonist treatment. The following applies: 100 nM ICI 182,780, pretreated 2 hours before addition of E2 (10 nM). The class given is cell-based, mouse. The protocol:
FIG. 10. mRNA levels of estrogen-responsive genes [Pgr (A, E) and Greb1 (B, F)] and fibrotic genes [Spon2 (C, G), Kiss1 (D), and Eln (H)] in LAMT primary fibroblasts from Arom^hum mice after treatment with 100 nM ICI 182,780 (ICI) or […] MPP in the presence or absence of E2 (10 nM). Cells were pretreated with ICI 182,780 or MPP for 2 hours before the addition of E2. Veh, vehicle. *P<0.05, **P<0.01. GAPDH mRNA levels served as controls.
Experiment 1a2: Does the general E2 antagonist fulvestrant, which downregulates and blocks ER, or ERα-selective E2 antagonist MPP prevent, arrest or reverse LAMT muscle fibrosis, atrophy and inguinal hernias in male Arom^hum mice? […] Here, we will define whether the effects of E2 on hernia formation in LAMT is mediated via ERα in vivo. We will treat Arom^hum or WT mice with vehicle, fulvestrant (ICI 182,780), or MPP. […] Circulating and muscle tissue E2 levels will be measured using LC-MS^2. To validate the effects of each treatment, protein expression of ERα and E2/ERα target genes (Ccnd1, Pgr, and Greb1), and cell proliferation markers (Ki67 and PCNA) will be determined by IHC and immunoblotting. Fibrotic-related genes (Kiss1, Ren1, Emb, Timp1, Spon2, and Eln), the ECM marker Col1a1, and the myocyte marker Myh will be assessed using qPCR and IHC in LAMT after fulvestrant, MPP, and/or letrozole treatment. […]

The source of these data is patent US20240238310A1, “MODULATION OF SEX STEROID HORMONE PRODUCTION AND ACTIVITY FOR TREATING AND PREVENTING HERNIAS” (Northwestern University, priority 2020, published 2024).

Entries after “also recorded” stand apart in the source; their conditions may differ.

Regarding `C[C@]12CC[C@@H]3c4ccc(O)cc4C[C@@H](CCCCCCCCC[S+]([O-])CCCC(F)(F)C(F)(F)F)[C@H]3[C@@H]1CC[C@@H]2O` (stereo partly drawn) [fulvestrant], the “myofiber atrophy / myofiber cross-section area” value in assay [1] (Arom^hum mice with large hernias, fulvestrant 12 weeks, FIG. 18C) is “completely reversed myofiber atrophy; also recorded: increase in myofiber cross-section area”. The “total collagen content in LAMT (hydroxyproline assay)” value in assay [1] (Arom^hum mice with large hernias, fulvestrant 12 weeks, FIG. 18E) is listed as “decreased to normal levels similar to WT mice”. For the same compound, the “established fibrosis in the LAMT” value in assay [1] (Arom^hum mice with large hernias, fulvestrant 12 weeks, FIGS. 18C and D) is reported as “completely reversed with fulvestrant treatment; also recorded: decrease in muscle fibrosis”. In addition, the “reversal of large and severe hernias (>200 mm^2)” value in assay [1] (Arom^hum mice, fulvestrant alone for 12 weeks, started when hernia area was over 200 mm^2, FIG. 18) is “can reverse large and severe hernias”. For the same compound, the “time of administration after which large hernias completely disappeared” value in assay [1] (Arom^hum mice, hernia area over 200 mm^2) is listed as 3- to 4 week. Moreover, the “E2-induced expression of estrogen-responsive genes (Pgr and Greb1) and fibrotic genes (Spon2, Kiss1, Eln)” value in assay [2] was “significantly decreased E2-induced expression of estrogen-responsive genes (Pgr and Greb1) and fibrotic genes (Spon2, Kiss1 and, Eln)”.
